Assay results reported in PMC9936538, “Structure–Activity Relationship of N-Ethyl-Hexedrone Analogues: Role of the α-Carbon Side-Chain Length in the Mechanism of Action, Cytotoxicity, and Behavioral Effects in Mice” (ACS Chemical Neuroscience, 2023).

Key:
Swiss CD-1 mice = assay: Conditioned place preference (CPP); format: in vivo; conditions: 10 mg/kg i.p.
Method: Male Swiss CD-1 mice (Janvier, Le Genest, France) weighing 30–35 g (6–8 weeks old), housed in temperature-controlled conditions (22 ± 1 °C) under a 12 h light/dark cycle and with free access to food and drinking water (standard laboratory diet, Panlab SL, Barcelona, Spain), were randomly assigned to an experimental group. Efforts were made to minimize animal use and suffering.
The potential of the studied compounds to induce reward was determined using a place conditioning paradigm, as described.[6] For this experiment, an apparatus with two distinct compartments, with differences in tactile and visual cues, communicated by a central corridor, has been used. In brief, CPP was performed in three phases: preconditioning test, conditioning, and postconditioning test. During the preconditioning phase (day 0), mice were placed in the middle of the corridor and had free access to both compartments for 15 min. The time spent in each compartment was recorded and monitored using a specific tracking software (Smart 3.0 Panlab, Barcelona, Spain). […] In the alternative session, mice received a saline i.p. injection and were placed for 20 min in the other compartment. Mice in the control group received a saline injection in every session. The compartment and session in which mice received the drug were randomized. On the test day (postconditioning phase), the same conditions as in the preconditioning phase were applied. A preference score was calculated as the difference between the time spent in the drug-paired compartment in the postconditioning test minus the time spent in the preconditioning phase.

[1] = Cytotoxicity in NGF-differentiated PC12 cells, WST-8 cell viability assay; format: cell-based; conditions: rat, WST-8, 24 h exposure, mean ± SEM of 3–4 experiments, read-out: LC50 (approximated), cell viability
Method: Pheochromocytoma cells (PC12) cells were cultured in collagen-coated dishes in DMEM supplemented with heat-inactivated 5% FBS, 10% horse serum, 10 mM HEPES, 2 mM glutamine, 25 UI/mL penicillin, and 25 μg/mL streptomycin (maintenance medium) and grown at 37 °C in a humidified 5% CO2 atmosphere. Cell differentiation was performed as described[54] with minor modifications. In brief, cells were seeded (250.000 cells/well) onto 96-well plates in the maintenance medium, and after 24 h, the medium was changed to a differentiation medium containing 50 ng/mL NGF. After 24 h, neurite outgrowth was already apparent.
Treatments with different concentrations of the drug in DMEM were performed 48 h after cell differentiation. 10 μL of the tested drug was added per well, in triplicate, and cells were incubated for 24 h at 37 °C in a humidified 5% CO2 atmosphere. Thereafter, the medium was removed and immediately replaced with a maintenance medium. 10 μL of the CCK-8 Cell Counting Kit, based on 2-(2-methoxy-4-nitrophenyl)-3-(4-nitrophenyl)-5-(2,4-disulfophenyl)-2H-tetrazolium, monosodium salt (WST-8), was added per well and was incubated for 2 h at 37 °C in a humidified 5% CO2 atmosphere. This method has been defined as a good alternative to the 3-(4,5-dimethylthiazol-2-yl)-2,5-diphenyltetrazoliumbromide (MTT) assay.[63] Optical density was measured at 450 nm, using a microplate reader.
(§1) For in vitro assays, data were normalized with 100% defined as the mean of the technical replicates in the control group and expressed as mean ± SEM. Nonlinear regression was used to fit the different competition curves. Data were plotted and best fitted to a sigmoidal dose–response curve from which an IC50 or LC50 value was obtained. Transporter ratios were calculated as (1/DAT IC50: 1/SERT IC50). Although IC50 values at inhibiting 5-HT uptake for some compounds tested are expressed as >100 μM for clarity purposes, DAT/SERT ratios were calculated with the original raw data. The Cheng–Prusoff equation was used to calculate Ki (affinity): Ki = EC50/(1 + [radioligand concentration/Kd]).[65] The sample size for behavioral experiments was determined using GPower software. One-way or two-way ANOVA, and subsequent Tukey’s posthoc test, conducted only if F was significant, was used to determine the effects of cathinones on cytotoxicity, HLA, OF, and CPP experiments. The α error probability was set at 0.05 (p < 0.05). The exact size group for the behavioral experiments is shown in the corresponding figure legends. All statistic calculations were carried out using GraphPad Prism (GraphPad software, San Diego, CA, USA).

hDAT [2] = biological target: T1, hDAT (Homo sapiens, UniProt Q01959); assay: Monoamine uptake inhibition, [3H]MPP+ uptake at hDAT in transfected HEK293 cells; format: cell-based
T1 construct: expressed in transfected cells; host or cells: HEK293
T1 sequence (Q01959 whole entry): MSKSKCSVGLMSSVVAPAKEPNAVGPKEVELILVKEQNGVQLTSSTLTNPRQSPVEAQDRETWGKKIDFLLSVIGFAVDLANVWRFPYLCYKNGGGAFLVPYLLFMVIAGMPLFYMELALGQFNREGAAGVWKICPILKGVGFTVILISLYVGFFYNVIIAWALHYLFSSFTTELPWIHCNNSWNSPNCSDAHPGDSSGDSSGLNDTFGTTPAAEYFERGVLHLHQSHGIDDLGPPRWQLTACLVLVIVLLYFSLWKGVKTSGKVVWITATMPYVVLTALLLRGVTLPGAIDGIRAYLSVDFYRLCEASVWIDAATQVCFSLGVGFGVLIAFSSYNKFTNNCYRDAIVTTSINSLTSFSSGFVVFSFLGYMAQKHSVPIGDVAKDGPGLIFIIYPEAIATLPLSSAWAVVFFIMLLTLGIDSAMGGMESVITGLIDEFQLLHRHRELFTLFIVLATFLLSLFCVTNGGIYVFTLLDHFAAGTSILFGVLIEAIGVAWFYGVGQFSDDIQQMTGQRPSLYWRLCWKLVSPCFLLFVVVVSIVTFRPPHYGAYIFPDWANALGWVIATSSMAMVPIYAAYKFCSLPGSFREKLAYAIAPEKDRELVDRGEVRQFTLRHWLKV
Method: (§2) Human embryonic kidney cells (HEK293) stably transfected with the human DAT and SERT were used for both the uptake inhibition and transporter binding assays.[6] Cells were cultured in DMEM supplemented with heat-inactivated 10% fetal bovine serum (FBS), […], and 100 U/mL penicillin at 37 °C in a 5% CO2 humidified atmosphere. Geneticin (G418; 50 μg/mL) was added to maintain the selection process. Upon approximately 80% confluence, cells were washed with 5 mL of phosphate-buffered saline (PBS) and 1 mL of trypsin/EDTA was added. After 3 min, 9 mL of DMEM was added to stop cell trypsinization. If necessary, centrifugation was performed to pellet the cells. Cells were then resuspended, counted, and seeded onto poly-D-lysine coated (24 h/prior to the experiment) 96-well plates at a density of 0.36 million cells per well for the uptake inhibition assays.
(§3) Assays were performed as previously described.[8] On the test day, the medium was removed from the cell culture 96-well plates and immediately replaced with 200 μL of Krebs-HEPES-buffer (KHB; 10 mM HEPES, 120 mM NaCl, 3 mM KCl, 2 mM CaCl2·2H2O, 2 mM MgCl2·6H2O supplemented with 20 mM D-glucose; pH 7.3). To ensure equilibrated conditions, cells were incubated with different concentrations of the drugs in KHB at a final volume of 50 μL/well for 5 min (preincubation). The preincubation solution was removed, and cells were incubated with the tritiated compounds, 0.02 μM [^3H]MPP^+ for hDAT and 0.1 μM [^3H]5-HT for hSERT, together with various concentrations of the test drugs in KHB. The uptake incubation times were 3 min for hDAT and 1 min for hSERT. The reaction was stopped by rapid removal of the incubation solution and washout with ice-cold KHB. Cells were lysed with 1% sodium dodecyl sulfate, and lysates were subsequently transferred to vials containing scintillation fluid. Radioactivity was quantified with a beta-scintillation counter (PerkinElmer, Waltham, MA, USA). The uptake in the absence of the test drugs was normalized to 100%, and the uptake in the presence of various concentrations of cathinones was expressed as a percentage thereof. […] Four independent experiments carried out on triplicates were performed.
as §1, with “Although IC50 values at inhibiting 5-HT uptake for some compounds tested are expressed as >100 μM for clarity purposes, DAT/SERT ratios were calculated with the original raw data.” left out

hSERT [3] = biological target: T2, hSERT (Homo sapiens, UniProt P31645); assay: Monoamine uptake inhibition, [3H]5-HT uptake at hSERT in transfected HEK293 cells; format: cell-based; conditions: transfected HEK293 cells; mean ± SEM of four independent experiments; read-out: [3H]5-HT uptake at hSERT, IC50
T2 construct: expressed in transfected cells; host or cells: HEK293
T2 sequence (P31645 whole entry): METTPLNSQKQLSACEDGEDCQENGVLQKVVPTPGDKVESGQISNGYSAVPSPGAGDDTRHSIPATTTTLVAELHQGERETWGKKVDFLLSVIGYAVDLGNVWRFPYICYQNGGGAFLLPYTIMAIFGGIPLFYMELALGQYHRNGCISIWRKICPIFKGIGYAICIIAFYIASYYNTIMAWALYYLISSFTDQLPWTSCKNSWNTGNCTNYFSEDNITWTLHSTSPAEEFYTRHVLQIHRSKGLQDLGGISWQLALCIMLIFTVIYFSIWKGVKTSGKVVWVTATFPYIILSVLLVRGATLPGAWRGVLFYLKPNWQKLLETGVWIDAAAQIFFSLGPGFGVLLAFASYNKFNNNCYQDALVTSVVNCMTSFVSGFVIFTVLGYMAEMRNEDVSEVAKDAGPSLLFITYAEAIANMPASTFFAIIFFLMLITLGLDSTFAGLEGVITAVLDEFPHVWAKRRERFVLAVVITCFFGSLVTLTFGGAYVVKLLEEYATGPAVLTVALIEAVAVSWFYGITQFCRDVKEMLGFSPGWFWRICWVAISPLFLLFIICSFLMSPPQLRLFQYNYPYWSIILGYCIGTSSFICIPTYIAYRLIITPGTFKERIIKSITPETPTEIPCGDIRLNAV
Method: as §2, §3
as §1, with “Although IC50 values at inhibiting 5-HT uptake for some compounds tested are expressed as >100 μM for clarity purposes, DAT/SERT ratios were calculated with the original raw data.” left out

hDAT [4] = biological target: T1, hDAT; assay: Transporter binding, [3H]WIN 35,428 binding at hDAT (HEK293 membranes); conditions: membranes of transfected HEK293 cells; mean ± SEM of four independent experiments; read-out: [3H]WIN 35,428 binding at hDAT, Ki
Method: (§4) For membrane preparation, cells were harvested from 80 to 90% confluent dishes. HEK293 cells were washed with ice-cold phosphate-buffered saline (PBS), mechanically detached from the dish using a plastic scraper, and pelleted by centrifugation (400g for 10 min at 4 °C). The pellet was resuspended in HME buffer (20 mM HEPES NaOH, 1 mM EDTA, 2 mM MgCl2; pH 7.4), subjected to two freeze–thaw cycles in liquid nitrogen and homogenized through sonication at 4 °C. Membranes were then collected by centrifugation (40,000g for 30 min at 4 °C) and resuspended in an appropriate volume of HME buffer. The different membrane preparations aliquots were kept at −80 °C. Protein concentration was determined using the Bio-Rad Protein Reagent (Bio-Rad Laboratories, Hercules, CA).
(§5) Binding assays were performed as described.[6] […] This nonspecific binding also allows subtracting from the total binding values of the binding to other components such as membrane lipids or microfiber filters. Incubation was performed for 1 h at 22 °C. Binding reactions are stopped by rapid filtration of the membranes through GF/C glass microfiber filters presoaked with 0.5% polyethyleneimine and rapid washing with ice-cold wash buffer (120 mM NaCl, 2 mM MgCl2, 10 mM Tris, and 100 μM ZnCl2 for hDAT, and […], 2 mM MgCl2, and 10 mM Tris, for hSERT). Thereafter, the filters are placed into vials, a scintillation cocktail is added and trapped radioactivity is quantified by liquid scintillation counting. Specific binding of each drug to the transporter was defined as the difference between total binding (binding buffer in absence of the drug) and nonspecific binding. For each cathinone, four independent experiments carried out on duplicates were performed.
as §1, with “Although IC50 values at inhibiting 5-HT uptake for some compounds tested are expressed as >100 μM for clarity purposes, DAT/SERT ratios were calculated with the original raw data.” left out

hSERT [5] = biological target: T2, hSERT; assay: Transporter binding, [3H]imipramine binding at hSERT (HEK293 membranes); conditions: membranes of transfected HEK293 cells; mean ± SEM of four independent experiments; read-out: [3H]imipramine binding at hSERT, Ki
Method: as §4, §5
as §1, with “Although IC50 values at inhibiting 5-HT uptake for some compounds tested are expressed as >100 μM for clarity purposes, DAT/SERT ratios were calculated with the original raw data.” left out

Row | Compound | CPP rewarding effect vs saline (Swiss CD-1 mice) | CC50 at 24 h [1] | hDAT/hSERT inhibition ratio (hDAT [2]; 1/DAT IC50:1/SERT IC50, calculated with the original raw data) | IC50 (hDAT [2]; transfected HEK293 cells, mean ± SEM of four independent experiments, read-out: [3H]MPP+ uptake at hDAT, IC50) | IC50 (hSERT [3]) | Ki (hDAT [4]) | Ki (hSERT [5])
1 | COC(=O)[C@H]1[C@@H](OC(=O)c2ccccc2)C[C@@H]2CC[C@H]1N2C [Cocaine, reference compound] | induced rewarding effects | – | – | – | – | – | –
2 | CN[C@@H](C)Cc1ccccc1 [Meth, methamphetamine, reference compound] | – | 8730 µM | – | – | – | – | –
3 | CCCC(C(=O)c1ccccc1)N1CCCC1 (stereo not drawn) [α-PVP, alpha-pyrrolidinovalerophenone, reference compound] | induced rewarding effects | – | 3222 | 0.124 µM | > 100 µM | 0.019 µM | > 100 µM
